Results as given in US9556237B2 (priority 2012, dated 2017).
Peptide text beside a SMILES is read from it.

Test system: Vero E6 cells

Structure (SMILES): CSCC[C@H](N)C(=O)N[C@@H](Cc1ccccc1)C(=O)N[C@@H](CC(C)C)C(=O)NCC(=O)N[C@@H](Cc1c[nH]c2ccccc12)C(=O)N[C@@H](CO)C(=O)N[C@@H](Cc1ccccc1)C(=O)N[C@@H](CC(=O)O)C(=O)N[C@@H](Cc1ccccc1)C(=O)NCC(=O)N[C@@H](CO)C(=O)N[C@@H](CC(C)C)C(=O)N[C@@H](Cc1c[nH]c2ccccc12)C(=O)NCC(=O)N[C@@H](CC(N)=O)C(=O)N[C@@H](CCCCN)C(=O)N1CCC[C@H]1C(=O)N[C@@H](Cc1c[nH]c2ccccc12)C(=O)N[C@@H](Cc1ccccc1)C(=O)O [RVFV-6sc, MFLGWSFDFGSLWGNKPWF, reference compound] (H-MFLGWSFDFGSLWGNKPWF-OH)
- impact on cell proliferation (MTT assay): little negative impact on cell proliferation
